From patent US20220089575A1, “FARNESOID X RECEPTOR AGONISTS AND USES THEREOF” (Metacrine, Inc., priority 2017, published 2022) come the findings set out here.

In general, EC50 refers to the concentration that produces a half-maximal response. A low value points to higher potency in that assay.

The target of the test is T1, hFXR (Homo sapiens, UniProt Q96RI1).
T1 construct: expressed in transfected cells; host or cells: CV-1 cells
T1 sequence (Q96RI1 1-486): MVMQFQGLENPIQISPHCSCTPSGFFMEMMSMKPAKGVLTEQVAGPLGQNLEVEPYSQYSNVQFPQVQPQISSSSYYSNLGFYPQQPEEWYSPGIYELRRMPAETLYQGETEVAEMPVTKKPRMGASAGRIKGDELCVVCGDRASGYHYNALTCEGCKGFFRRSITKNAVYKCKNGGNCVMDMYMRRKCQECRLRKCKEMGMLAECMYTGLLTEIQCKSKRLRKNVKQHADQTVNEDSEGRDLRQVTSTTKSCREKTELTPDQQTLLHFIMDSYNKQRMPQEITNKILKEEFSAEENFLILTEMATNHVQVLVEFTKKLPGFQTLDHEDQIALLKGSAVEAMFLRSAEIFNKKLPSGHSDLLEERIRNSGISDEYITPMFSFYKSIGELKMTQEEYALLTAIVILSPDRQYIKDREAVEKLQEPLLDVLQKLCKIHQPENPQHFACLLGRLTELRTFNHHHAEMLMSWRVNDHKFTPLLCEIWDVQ
T1 sequence (P19793 1-462 partner): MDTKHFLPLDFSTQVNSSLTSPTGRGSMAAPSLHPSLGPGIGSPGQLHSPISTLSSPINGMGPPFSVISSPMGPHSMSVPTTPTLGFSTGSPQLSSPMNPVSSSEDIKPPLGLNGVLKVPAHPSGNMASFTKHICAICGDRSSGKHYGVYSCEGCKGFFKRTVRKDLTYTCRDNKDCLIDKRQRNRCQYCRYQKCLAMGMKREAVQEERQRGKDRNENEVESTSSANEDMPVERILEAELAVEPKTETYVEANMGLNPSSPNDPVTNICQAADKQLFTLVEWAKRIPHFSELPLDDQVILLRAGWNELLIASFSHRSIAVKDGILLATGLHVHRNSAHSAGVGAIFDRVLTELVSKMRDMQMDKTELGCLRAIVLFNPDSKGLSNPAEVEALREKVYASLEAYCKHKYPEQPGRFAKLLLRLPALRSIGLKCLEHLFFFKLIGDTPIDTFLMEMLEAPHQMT
In words: In Vitro FXR Assay (TK): TK-ECRE-luc reporter in transfected CV-1 cells. Type of test: cell-based. Conditions: 18 hrs, luminescence, maximum efficacy of <25% of the Fexarmine control classified as '+'. The method in brief:
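Transiently transfected monkey CV-1 cells (hFXR, hRXR, TK-ECRE-luciferase, YFP control plasmid), held in stripped-serum DMEM, received compound dilutions from DMSO for 18 h at 37 °C. Activity was taken from luminescence of the cell lysates.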
`Cn1nc(F)c2cc([C@H]3CC[C@H](CN(c4cccc(-c5cnn(C6CC6)c5)c4)C(=O)[C@H]4CC[C@H](C(=O)O)CC4)CC3)ccc21` [Compound 17.16, trans-4-((3-(1-Cyclopropyl-1H-pyrazol-4-yl)phenyl)((trans-4-(3-fluoro-1-methyl-1H-indazol-5-yl)cyclohexyl)methyl)carbamoyl) cyclohexanecarboxylic acid] registered an EC50 of no more than 250 nM. Consider `COc1ccc(C23CCC(CN(c4cccc(-c5cnn(C6CC6)c5)c4)C(=O)[C@H]4CC[C@H](C(=O)O)CC4)(CC2)CC3)cc1C` [Compound 17.17, trans-4-((3-(1-Cyclopropyl-1H-pyrazol-4-yl)phenyl)((4-(4-methoxy-3-methylphenyl)bicyclo[2.2.2]octan-1-yl)methyl)carbamoyl) cyclohexanecarboxylic acid], for which the 50% effective concentration (EC50) is no more than 250 nM. The same measure for `COc1ccc([C@H]2CC[C@H](CN(c3cccc(-c4cnn(C5CC5)c4)c3)C(=O)[C@H]3CC[C@H](C(=O)O)CC3)CC2)nc1C` [Compound 17.18, trans-4-((3-(1-Cyclopropyl-1H-pyrazol-4-yl)phenyl)((trans-4-(5-methoxy-6-methylpyridin-2-yl)cyclohexyl)methyl)carbamoyl) cyclohexanecarboxylic acid]: 250 to 1000 nM; for `COc1ccc(C23CCC(CN(c4cc(-c5cnn(C6CC6)c5)ccn4)C(=O)[C@H]4CC[C@H](C(=O)O)CC4)(CC2)CC3)cc1C` [Compound 17.19, trans-4-((4-(1-Cyclopropyl-1H-pyrazol-4-yl)pyridin-2-yl)((4-(4-methoxy-3-methylphenyl)bicyclo[2.2.2]octan-1-yl)methyl)carbamoyl) cyclohexanecarboxylic acid]: no more than 250 nM; for `COc1ccc([C@H]2CC[C@H](CN(c3cc(-c4cnn(C5CC5)c4)ccn3)C(=O)[C@H]3CC[C@H](C(=O)O)CC3)CC2)cc1C` [Compound 17.20, trans-4-((4-(1-Cyclopropyl-1H-pyrazol-4-yl)pyridin-2-yl)((trans-4-(4-methoxy-3-methylphenyl)cyclohexyl)methyl)carbamoyl)cyclohexanecarboxylic acid]: no more than 250 nM.

For the compound `COc1ccc([C@H]2CC[C@H](CN(c3cc(-c4cnn(C5CC5)c4)ccn3)C(=O)[C@H]3CC[C@H](C(=O)O)CC3)CC2)nc1C` [Compound 17.21, trans-4-((4-(1-Cyclopropyl-1H-pyrazol-4-yl)pyridin-2-yl)((trans-4-(5-methoxy-6-methylpyridin-2-yl)cyclohexyl)methyl)carbamoyl) cyclohexanecarboxylic acid], the 50% effective concentration (EC50) is no less than 1000 nM. `COc1ccc([C@H]2CC[C@H](CN(c3cccc(-c4cnn(C5CC5)c4)c3)C(=O)[C@H]3CC[C@H](C(=O)O)CC3)CC2)cc1C#N` [Compound 17.22, trans-4-(((trans-4-(3-Cyano-4-methoxyphenyl)cyclohexyl)methyl)(3-(1-cyclopropyl-1H-pyrazol-4-yl)phenyl)carbamoyl)cyclohexanecarboxylic acid] came in with an EC50 of no more than 250 nM.

For `COc1ccc([C@H]2CC[C@H](CN(c3cc(-c4cnn(C5CC5)c4)ccn3)C(=O)[C@H]3CC[C@H](CC(=O)O)CC3)CC2)nc1C` [Compound 17.23, 2-(trans-4-((4-(1-Cyclopropyl-1H-pyrazol-4-yl)pyridin-2-yl)((trans-4-(5-methoxy-6-methylpyridin-2-yl)cyclohexyl)methyl)carbamoyl)cyclohexyl)acetic acid], the half-maximal effective concentration (EC50) is 250 to 1000 nM. In the case of `COc1ccc([C@H]2CC[C@H](CN(c3cccc(-c4cnn(C5CC5)c4)c3)C(=O)[C@H]3CC[C@H](CC(=O)O)CC3)CC2)nc1C` [Compound 17.24, 2-(trans-4-((3-(1-Cyclopropyl-1H-pyrazol-4-yl)phenyl)((trans-4-(5-methoxy-6-methylpyridin-2-yl)cyclohexyl)methyl)carbamoyl)cyclohexyl)acetic acid], the EC50 was no more than 250 nM.

The compound `COc1ccc([C@H]2CC[C@H](CN(c3cc(-c4cnn(C(C)C)c4)ccn3)C(=O)[C@H]3CC[C@H](CC(=O)O)CC3)CC2)nc1C` [Compound 17.25, 2-(trans-4-((4-(1-Isopropyl-1H-pyrazol-4-yl)pyridin-2-yl)((trans-4-(5-methoxy-6-methylpyridin-2-yl)cyclohexyl)methyl)carbamoyl)cyclohexyl) acetic acid] came in with an EC50 of no more than 250 nM.

On to `COc1ccc([C@H]2CC[C@H](CN(c3cc(-c4cnn(C(C)C)c4)ccn3)C(=O)[C@H]3CC[C@H](CC(=O)O)CC3)CC2)cc1C#N` [Compound 17.26, 2-(trans-4-(((trans-4-(3-Cyano-4-methoxyphenyl)cyclohexyl)methyl)(4-(1-isopropyl-1H-pyrazol-4-yl)pyridin-2-yl)carbamoyl)cyclohexyl)acetic acid], for which the EC50 was no more than 250 nM. With `COc1ccc([C@H]2CC[C@H](CN(c3cc(-c4cnn(C(C)C)c4)ccn3)C(=O)[C@H]3CC[C@H](CC(=O)O)CC3)CC2)nc1C#N` [Compound 17.27, 2-(trans-4-(((trans-4-(6-Cyano-5-methoxypyridin-2-yl)cyclohexyl)methyl)(4-(1-isopropyl-1H-pyrazol-4-yl)pyridin-2-yl)carbamoyl)cyclohexyl)acetic acid], the concentration giving a half-maximal response (EC50) is no less than 1000 nM. The compound `COc1ccc([C@H]2CC[C@H](CN(c3cccc(-c4coc(C5CC5)n4)c3)C(=O)[C@H]3CC[C@H](C(=O)O)CC3)CC2)cc1C#N` [Compound 18, trans-4-(((trans-4-(3-Cyano-4-methoxyphenyl)cyclohexyl)methyl)(3-(2-cyclopropyloxazol-4-yl)phenyl)carbamoyl)cyclohexanecarboxylic acid] returned an EC50 of no more than 250 nM. The same measure for `COc1ccc([C@H]2CC[C@H](CN(c3cccc(-c4coc(C5CC5)n4)c3)C(=O)[C@H]3CC[C@H](C(=O)O)CC3)CC2)nc1C` [Compound 18.01, trans-4-((3-(2-Cyclopropyloxazol-4-yl)phenyl)((trans-4-(5-methoxy-6-methylpyridin-2-yl)cyclohexyl)methyl)carbamoyl) cyclohexanecarboxylic acid]: no more than 250 nM; for `COc1ccc([C@H]2CC[C@H](CN(c3cc(-c4coc(C5CC5)n4)ccn3)C(=O)[C@H]3CC[C@H](C(=O)O)CC3)CC2)cc1C` [Compound 18.02, trans-4-((4-(2-Cyclopropyloxazol-4-yl)pyridine-2-yl)((trans-4-(4-methoxy-3-methylphenyl)cyclohexyl)methyl)carbamoyl)cyclohexanecarboxylic acid]: no more than 250 nM; for `COc1ccc(C23CCC(CN(c4cc(-c5coc(C6CC6)n5)ccn4)C(=O)[C@H]4CC[C@H](C(=O)O)CC4)(CC2)CC3)cc1C` [Compound 18.03, trans-4-((4-(2-Cyclopropyloxazol-4-yl)pyridin-2-yl)((4-(4-methoxy-3-methylphenyl)bicyclo[2.2.2]octan-1-yl)methyl)carbamoyl) cyclohexanecarboxylic acid]: no more than 250 nM. The result for `CN(C)c1ccc([C@H]2CC[C@H](CN(c3cccc(-c4coc(C5CC5)n4)c3)C(=O)[C@H]3CC[C@H](C(=O)O)CC3)CC2)cn1` [Compound 18.04, trans-4-((3-(2-Cyclopropyloxazol-4-yl)phenyl)((trans-4-(6-(dimethylamino)pyridine-3-yl)cyclohexyl)methyl)carbamoyl) cyclohexanecarboxylic acid] reads no more than 250 nM; that for `COc1ccc([C@H]2CC[C@H](CN(c3cccc(-c4coc(C5CC5)n4)c3)C(=O)[C@H]3CC[C@H](C(=O)O)CC3)CC2)nc1C#N` [Compound 18.05, trans-4-(((trans-4-(6-Cyano-5-methoxypyridin-2-yl)cyclohexyl)methyl)(3-(2-cyclopropyloxazol-4-yl)phenyl)carbamoyl) cyclohexanecarboxylic acid], no more than 250 nM; that for `COc1ccc([C@H]2CC[C@H](CN(c3cccc(-c4cnc(C5CC5)s4)c3)C(=O)[C@H]3CC[C@H](C(=O)OC)CC3)CC2)cc1C` [Compound 18.06, trans-Methyl 4-((3-(2-cyclopropylthiazol-5-yl)phenyl)((trans-4-(4-methoxy-3-methylphenyl)cyclohexyl)methyl)carbamoyl) cyclohexanecarboxylate], no more than 250 nM. `COc1ncc(-c2cccc(N(C[C@H]3CC[C@H](c4ccc(OC)c(C)c4)CC3)C(=O)[C@H]3CC[C@H](C(=O)OC)CC3)c2)s1` [Compound 18.07, trans-Methyl 4-(((trans-4-(4-methoxy-3-methylphenyl)cyclohexyl)methyl)(3-(2-methoxythiazol-5-yl)phenyl)carbamoyl)cyclohexanecarboxylate] registered an EC50 of no more than 250 nM.
